Test results published in PMC7311426, “An amphipathic peptide with antibiotic activity against multidrug-resistant Gram-negative bacteria” (Nature Communications, 2020).
In brackets after ≈: the same amount, converted by molar mass. Residues, ends and D or L forms follow the SMILES beside them.

How the values were obtained:
[1] = tested on: human primary hepatocytes; experiment: Cell viability, human primary hepatocytes (Eurofins Panlabs); format: cell-based
Description: Cell viability of human primary hepatocytes against AA139 was assessed by fluorometric readout of Alamar Blue following 24 h incubation at 37 °C of human plateable cryopreserved hepatocytes and AA139 as an 8-point dose response, 0.1–300 μM, as described by Nociari et al.[41]. Cell viability was calculated as a percentage of the control cells and plotted versus concentration using Prism 8 Software. The IC50 value was determined by non-linear regression analysis of the concentration–response curve using the Hill equation. Assay was performed by Eurofins Pharma Discovery Services (Panlabs), St Charles, MO, USA, study number 100049990. Source data are provided as a source data file.

[2] = Intravenous pharmacokinetics; conditions: for Nonlin fit of XY (Prism), mouse i.v. bolus / level at 1.23 h / level at 2 h / level at 3 h / level at 4 h / level at 8 h / level at 0.08 h / level at 0.5 h / level at 1 h / level at 24 h: Cross species PK; for Nonlin fit of XY (Prism), mouse i.v. bolus: fitted curve; for level at 1.23 h / level at 2 h / level at 3 h / level at 4 h / level at 8 h / level at 0.08 h / level at 0.5 h / level at 1 h / level at 24 h: concentration (Fig 6 source data)
Description: The studies were performed at Fidelta Ltd, Croatia (mice), under review by the institutional ethics committee (CARE-Zg), and Covance Laboratories UK and Muenster Germany (cynomolgus monkey and minipig) in accordance with the requirements of the Animals (Scientific Procedures) Act 1989 and a maintained local ethical review. All studies were contracted by Adenium Biotech ApS. Mice were housed in polysulfone cages with an acclimatization period of 7 days prior to experiments with air temperature maintained at 22 °C with 55% humidity and light–dark cycles of 12 h light. Cynomolgus monkeys of age range 4–7 years were selected, tested for health, acclimatized for 2 weeks, and housed in single-animal climate controlled stainless-steel cages with a minimum of 8 air changes per hour with air temperature at 19–25 °C and relative humidity 40–70%, and light–dark cycles of 12 h light. Minipigs of age range 4–6 months were selected, tested for health, acclimatized for 2 weeks, and housed in single-animal pens with 15–20 air changes per hour with air temperature at 22–26 °C with light–dark cycles of 12 h light.
Mouse i.v. injection: A formulation of AA139 in Ringer’s acetate pH 6.0 (1 mg mL^−1) was administered to male CD1 mice (Charles River, Italy) at 10 mg kg^−1 as a 400 μL slow injection into the lateral tail vein. Blood samples were collected from the jugular vein at eight timepoints (n = 3 mice): 0.08, 0.25, 0.5, 1, 2, 4, 8, and 24 h. AA139 was quantified in plasma using solid phase extraction (SPE) followed by liquid chromatography with tandem mass spectrometric detection (LC–MS/MS). Pharmacokinetic analysis was performed using Phoenix WinNonlin 6.2. (Pharsight Corporation) software using individual animal data, non-compartmental sparse analysis, and the actual dose as determined from formulation analysis by UPLC.
Mouse, monkey, and minipig i.v. 2-h infusion: AA139 formulated in Ringer’s acetate was administered intravenously to CD1 mice, cynomolgus monkeys (Macaca fascicularis) and Göttingen A/S minipigs (Ellegaard Göttingen, Denmark) by continuous infusion over 2 h (minipig under anesthesia). Individual dose volumes were based on individual body weight. Blood samples were collected at 0.5, 1, 2, 3, 4, 8, 10, and 12 h after the start of the infusion (n = 6 mice, male and female combined; n = 2 monkeys, one male and one female; n = 2 minipigs, one male and one female). Bioanalytical analysis was performed by SPE followed by LC–MS/MS. The method was validated for an AA139 concentration range of 43.4–21,700 ng mL^−1. Pharmacokinetic parameters were calculated by standard non-compartmental analysis (NCA) using Phoenix WinNonlin version 6.2. The studies were conducted in compliance with Good Laboratory Practice (GLP) regulations.

[3] = In vivo toxicity and safety pharmacology, i.v./i.p./s.c.
[4] = both, CD1, mouse, in vivo, iv, 10 mg kg-1
[5] = both, CD1, mouse, in vivo, iv, mouse 2h i.v. infusion, replicate 1
[6] = both, CD1, mouse, in vivo, iv, mouse 2h i.v. infusion, replicate 2
[7] = both, CD1, mouse, in vivo, iv, mouse 2h i.v. infusion, replicate 3
[8] = male, CD1, mouse, in vivo, iv, 10 mg kg-1
[9] = male, CD1, mouse, in vivo, iv, 10 mg/kg, mouse i.v. bolus, replicate 1
[10] = male, CD1, mouse, in vivo, iv, 10 mg/kg, mouse i.v. bolus, replicate 2
[11] = male, CD1, mouse, in vivo, iv, 10 mg/kg, mouse i.v. bolus, replicate 3

CC(C)[C@@H]1NC(=O)[C@H](Cc2ccc(O)cc2)NC(=O)[C@H](Cc2c[nH]c3ccccc23)NC(=O)[C@@H](NC(=O)[C@H](Cc2ccccc2)NC(=O)CN)CSSC[C@@H](C(=O)N[C@@H](CC(N)=O)C(=O)O)NC(=O)[C@H](CCCNC(=N)N)NC(=O)[C@H](CCCNC(=N)N)NC(=O)[C@H](Cc2ccc(O)cc2)NC(=O)[C@@H]2CSSC[C@H](NC1=O)C(=O)N[C@@H](C)C(=O)N[C@@H](CCCNC(=N)N)C(=O)N[C@@H](CCCNC(=N)N)C(=O)N[C@@H](CC(N)=O)C(=O)NCC(=O)N[C@@H](C)C(=O)N[C@@H](CCCNC(=N)N)C(=O)N[C@@H](C(C)C)C(=O)N2 [AA139] (HELM PEPTIDE1{G.F.C.W.Y.V.C.A.R.R.N.G.A.R.V.C.Y.R.R.C.N}$PEPTIDE1,PEPTIDE1,3:R3-20:R3|PEPTIDE1,PEPTIDE1,7:R3-16:R3$$$V2.0)
IC50, human primary hepatocytes ([1]; 24 h): 330 µg/mL (≈ 129 µM) | Fold higher hepatocyte IC50 over antibacterial activity against E. coli ([1]; IC50 / MIC): 2400 fold | Fold higher hepatocyte IC50 over antibacterial activity against K. pneumoniae ([1]; IC50 / MIC): 300 fold | Nonlin fit of XY (Prism), mouse i.v. bolus ([2]; Time 19.1952 h): 546.556 | Nonlin fit of XY (Prism), mouse i.v. bolus ([2]; Time 20.1802 h): 523.855 | Nonlin fit of XY (Prism), mouse i.v. bolus ([2]; Time 23.952 h): 452.817 | AUC(0-inf) [2, 4]: 14000 ng·h/mL | half-life [2, 4]: 2.9 h | level at 1.23 h [2, 5]: 4540 ng/mL | level at 1.23 h [2, 6]: 4960 ng/mL | level at 1.23 h [2, 7]: 4090 ng/mL | level at 2 h [2, 5]: 8160 ng/mL | level at 2 h [2, 6]: 8010 ng/mL | level at 2 h [2, 7]: 3870 ng/mL | level at 3 h [2, 5]: 3530 ng/mL | level at 3 h [2, 6]: 3750 ng/mL | level at 3 h [2, 7]: 1420 ng/mL | level at 4 h [2, 5]: 1350 ng/mL | level at 4 h [2, 6]: 1140 ng/mL | level at 4 h [2, 7]: 1490 ng/mL | level at 8 h [2, 5]: 110 ng/mL | level at 8 h [2, 6]: 216 ng/mL | level at 8 h [2, 7]: 178 ng/mL | Clearance relative to rate of liver blood flow ([2]; i.v., mice, cynomolgus monkeys and minipigs): ~ 20% | half-life ([2]; i.v., mice, cynomolgus monkeys and minipigs, bi-exponential elimination): 2 to 4 h | AUC(0-inf) [2, 8]: 24900 ng·h/mL | Vd [2, 8]: 0.91 L/kg | half-life [2, 8]: 3.2 h | Cmax ([2]; male, CD1, mouse, in vivo, iv, 10 mg/kg): 16200 ng/mL | level at 0.08 h [2, 9]: 14900 ng/mL | level at 0.08 h [2, 10]: 10800 ng/mL | level at 0.08 h [2, 11]: 13200 ng/mL | level at 0.5 h [2, 9]: 8770 ng/mL | level at 0.5 h [2, 10]: 8380 ng/mL | level at 0.5 h [2, 11]: 6290 ng/mL | level at 1 h [2, 9]: 7140 ng/mL | level at 1 h [2, 10]: 5150 ng/mL | level at 1 h [2, 11]: 3780 ng/mL | level at 2 h [2, 9]: 5140 ng/mL | level at 2 h [2, 10]: 2960 ng/mL | level at 2 h [2, 11]: 3850 ng/mL | level at 4 h [2, 9]: 1600 ng/mL | level at 4 h [2, 10]: 1470 ng/mL | level at 4 h [2, 11]: 1500 ng/mL | level at 8 h [2, 9]: 402 ng/mL | level at 8 h [2, 10]: 388 ng/mL | level at 8 h [2, 11]: 472 ng/mL | level at 24 h [2, 9]: 48 ng/mL | level at 24 h [2, 10]: 32 ng/mL | level at 24 h [2, 11]: 31 ng/mL | Cross species PK, concentration (Fig 6 source data) ([2]; mouse 2h i.v. infusion, time 10 h, replicate 1): 88 | Cross species PK, concentration (Fig 6 source data) ([2]; mouse 2h i.v. infusion, time 10 h, replicate 2): 124 | Cross species PK, concentration (Fig 6 source data) ([2]; mouse 2h i.v. infusion, time 10 h, replicate 3): 134 | Cross species PK, concentration (Fig 6 source data) ([2]; mouse 2h i.v. infusion, time 12 h, replicate 1): 72.4 | Cross species PK, concentration (Fig 6 source data) ([2]; mouse 2h i.v. infusion, time 12 h, replicate 2): 93.8 | Cross species PK, concentration (Fig 6 source data) ([2]; mouse 2h i.v. infusion, time 12 h, replicate 3): 62.7 | NOAEL in mice ([3]; 7-day or 14-day repeated 2 h i.v. infusion once or twice daily): 20 mg kg^−1 per day | MTD ([3]; mouse, in vivo, ip): 20 mg/kg | MTD ([3]; mouse, in vivo, iv): 15 mg/kg | MTD at 168 h ([3]; mouse, in vivo, iv): 25 mg/kg | AUC(0-t) ([3]; mouse, in vivo, iv, 20 mg/kg): 28000 ng·h/mL | Cmax ([3]; mouse, in vivo, iv, 20 mg/kg, Cmax, Mouse, 14-day iv toxicity, GLP, TK dose 20 mg/kg, Day 1): 11600 ng/mL | Cmax ([3]; mouse, in vivo, iv, 20 mg/kg, Cmax, Mouse, 14-day iv toxicity, GLP, TK dose 20 mg/kg, Day 14): 9600 ng/mL | AUC(0-inf) ([3]; mouse, in vivo, iv, 29 mg/kg): 43800 ng·h/mL | Cmax ([3]; mouse, in vivo, iv, 29 mg/kg): 7500 ng/mL | NOAEL at 168 h ([3]; mouse, in vivo, iv, NOAEL, 7-day iv MTD, IV 2-h infusion, doses 20, 25, 30): 20 mg/kg | NOAEL at 336 h ([3]; mouse, in vivo, iv, NOAEL, 14-day iv toxicity, GLP, IV 2-h infusion, 0, 10, 15, 20 BID): 40 mg/kg/day | NOAEL ([3]; mouse, in vivo, iv, NOAEL, CNS & respiratory safety pharmacology iv, IV 2-h infusion, doses 0, 15, 20, 25): 20 mg/kg | NOAEL ([3]; mouse, in vivo, iv, NOAEL, single-dose iv MTD, doses 0, 5, 7.5, 10, 15, 20): 5 mg/kg | MTD ([3]; mouse, in vivo, sc, 100 mg/kg): 100 mg/kg
